Experimental data: USRE30451E, “Novel process for producing antibiotics bleomycin” (priority 1969, dated 1980)

What was measured:
[1] = tumour-inoculated ICR/JCL mice, intraperitoneally once a day for 10 days, doses 25 mg/kg to 0.19 mg/kg, Behres-Karber's method, observed up to 50 days
[2] = system: Ehrlich ascites carcinoma cells; details: for ED50: maximum dose level at which mice survive 100 to 200 percent of control survival days, intraperitoneally once a day for 10 days, doses 25 mg/kg to 0.19 mg/kg; for anti-tumor effect (in words): mouse, in vivo
[3] = system: Ehrlich ascites carcinoma cells; assay: Life-prolongation effect and toxicity in mice inoculated with ascites type Ehrlich carcinoma; details: mouse, in vivo

Row | Compound | LD50 [1] | ED50 [2] | anti-tumor effect (in words) [2] | toxicity (in words) [3]
1 | Cc1c(N)nc([C@H](CC(N)=O)NC[C@H](N)C(N)=O)nc1C(=O)N[C@H](C(=O)N[C@H](C)[C@@H](O)[C@H](C)C(=O)N[C@H](C(=O)NCCc1nc(-c2nc(C(=O)NCCCNCCCCN)cs2)cs1)[C@@H](C)O)[C@@H](O[C@@H]1O[C@@H](CO)[C@@H](O)[C@H](O)[C@@H]1O[C@@H]1O[C@H](CO)[C@@H](O)[C@H](OC(N)=O)[C@@H]1O)c1cnc[nH]1 [Compound 7, Bleomycin A5, reference compound] | 15.6 | 0.19 | strong in anti-tumor property | less in toxicity
2 | Cc1c(N)nc(C(CC(N)=O)NCC(N)C(N)=O)nc1C(=O)NC(C(=O)NC(C)C(O)C(C)C(=O)NC(C(=O)NCCc1nc(-c2nc(C(=O)NCCCNCCCN(C)C)cs2)cs1)C(C)O)C(OC1OC(CO)C(O)C(O)C1OC1OC(CO)C(O)C(OC(N)=O)C1O)c1cnc[nH]1 (centres unmarked) [Compound 21] | 10.3 | 0.19 | – | –
3 | Cc1c(N)nc(C(CC(N)=O)NCC(N)C(N)=O)nc1C(=O)NC(C(=O)NC(C)C(O)C(C)C(=O)NC(C(=O)NCCc1nc(-c2nc(C(=O)NCCCN3CCCC3)cs2)cs1)C(C)O)C(OC1OC(CO)C(O)C(O)C1OC1OC(CO)C(O)C(OC(N)=O)C1O)c1cnc[nH]1 (centres unmarked) [Compound 24, 3-(pyrrolidino)-propylamino-bleomycin] | – | 0.39 | – | –
4 | Cc1c(N)nc(C(CC(N)=O)NCC(N)C(N)=O)nc1C(=O)NC(C(=O)NC(C)C(O)C(C)C(=O)NC(C(=O)NCCc1nc(-c2nc(C(=O)NCCCN3CCNCC3)cs2)cs1)C(C)O)C(OC1OC(CO)C(O)C(O)C1OC1OC(CO)C(O)C(OC(N)=O)C1O)c1cnc[nH]1 (centres unmarked) [Compound 14, 3-(piperazino)propylamino-bleomycin] | – | 0.39 | – | –
5 | Cc1c(N)nc(C(CC(N)=O)NCC(N)C(N)=O)nc1C(=O)NC(C(=O)NC(C)C(O)C(C)C(=O)NC(C(=O)NCCc1nc(-c2nc(C(=O)NCCCNCCCO)cs2)cs1)C(C)O)C(OC1OC(CO)C(O)C(O)C1OC1OC(CO)C(O)C(OC(N)=O)C1O)c1cnc[nH]1 (centres unmarked) [Compound 32, 3-(3-hydroxypropyl)-aminopropylamino-bleomycin] | – | 0.19 | – | –
6 | Cc1c(N)nc(C(CC(N)=O)NCC(N)C(N)=O)nc1C(=O)NC(C(=O)NC(C)C(O)C(C)C(=O)NC(C(=O)NCCc1nc(-c2nc(C(=O)NCCCNC(C)c3ccccc3)cs2)cs1)C(C)O)C(OC1OC(CO)C(O)C(O)C1OC1OC(CO)C(O)C(OC(N)=O)C1O)c1cnc[nH]1 (centres unmarked) [Compound 35, 3-(1-phenylethyl)-aminopropyl-amino-bleomycin] | – | 0.19 | excellent in effect | less toxicity
7 | Cc1c(N)nc(C(CC(N)=O)NCC(N)C(N)=O)nc1C(=O)NC(C(=O)NC(C)C(O)C(C)C(=O)NC(C(=O)NCCc1nc(-c2nc(C(=O)NCCCNCCCNC(C)c3ccccc3)cs2)cs1)C(C)O)C(OC1OC(CO)C(O)C(O)C1OC1OC(CO)C(O)C(OC(N)=O)C1O)c1cnc[nH]1 (centres unmarked) [Compound 15] | 13.1 | 0.39 | – | –
8 | Cc1c(N)nc([C@H](CC(N)=O)NC[C@H](N)C(N)=O)nc1C(=O)N[C@H](C(=O)N[C@H](C)[C@@H](O)[C@H](C)C(=O)N[C@H](C(=O)NCCc1nc(-c2nc(C(=O)NCCCCN=C(N)N)cs2)cs1)[C@@H](C)O)[C@@H](O[C@@H]1O[C@@H](CO)[C@@H](O)[C@H](O)[C@@H]1O[C@H]1O[C@H](CO)[C@@H](O)[C@H](OC(N)=O)[C@@H]1O)c1cnc[nH]1 [Compound 3, Bleomycin B2, reference compound] | 7.5 | 0.78 | – | –
9 | Cc1c(N)nc(C(CC(N)=O)NCC(N)C(N)=O)nc1C(=O)NC(C(=O)NC(C)C(O)C(C)C(=O)NC(C(=O)NCCc1nc(-c2nc(C(=O)NCCNCC(C)O)cs2)cs1)C(C)O)C(OC1OC(CO)C(O)C(O)C1OC1OC(CO)C(O)C(OC(N)=O)C1O)c1cnc[nH]1 (centres unmarked) [Compound 13, 2-(2-hydroxypropyl)-aminoethylamino-bleomycin] | – | 0.39 | – | –
10 | COCCCNCCCNC(=O)c1csc(-c2csc(CCNC(=O)C(NC(=O)C(C)C(O)C(C)NC(=O)C(NC(=O)c3nc(C(CC(N)=O)NCC(N)C(N)=O)nc(N)c3C)C(OC3OC(CO)C(O)C(O)C3OC3OC(CO)C(O)C(OC(N)=O)C3O)c3cnc[nH]3)C(C)O)n2)n1 (centres unmarked) [Compound 33, 3-(3-methoxypropyl)-aminopropylaminobleomycin] | 7.5 | 0.19 | – | –
11 | Cc1c(N)nc(C(CC(N)=O)NCC(N)C(N)=O)nc1C(=O)NC(C(=O)NC(C)C(O)C(C)C(=O)NC(C(=O)NCCc1nc(-c2nc(C(=O)NCCCNCCCN3CCCCC3)cs2)cs1)C(C)O)C(OC1OC(CO)C(O)C(O)C1OC1OC(CO)C(O)C(OC(N)=O)C1O)c1cnc[nH]1 (centres unmarked) [Compound 30, 3-(3-piperidinopropyl)-aminopropylamino-bleomycin] | – | 0.39 | – | –
